In patent publication US11512078B2, “Addition salt of S1P1 receptor agonist and crystal form thereof, and pharmaceutical composition” (SUZHOU CONNECT BIOPHARMACEUTICALS, LTD., priority 2018, dated 2022):
Read-outs that look alike come from different tables or passages of the source.

What was measured:
[1] = Solubility of free state and salt forms in water by HPLC; type: physicochemical; conditions: stirred 2 h at 25° C., filtered
Procedure: HPLC solubility data were collected with Agilent 1260 high performance liquid chromatograph. The chromatographic column used was Poroshell 120 EC-C18 ([…]), the detection wavelength was 254 nm, column temperature for detection was 40° C., flow rate was 1.5 mL/min, and the sample volume was 5 μL. A sample was dissolved in mobile phase B to prepare a sample solution of a concentration about 0.45 mg/mL, and HPLC detection was performed according to the following gradient elution mode to obtain concentration in the sample.
Then samples were taken and filtered, and the concentrations were detected by HPLC. The solubility of the active ingredient in each of the samples in water was calculated.

[2] = Crystal form stability of free state in solvents (Comparative Example 1 of CN105315266A); type: physicochemical
From the text: Identification, preparation, a composition and use of the compound represented by formula A are disclosed in patent document CN103450171A (which is incorporated herein by reference in its entirety). Specifically, a method for preparing the compound is disclosed in Example 2. 12 crystal forms of the compound represented by formula A are disclosed in patent document CN105315266A (which is incorporated herein by reference in its entirety).

[3] = start: crystal forms I-XII and amorphous form, cited from earlier work
[4] = Crystal form storage stability, 30 days under conventional, high-temperature and accelerated conditions; type: physicochemical; conditions: 1 month under conventional, high-temperature (60° C.) and accelerated conditions (40° C.-75% relative humidity)
Procedure: The crystal form of the sulfate of the compound represented by formula A and the crystal form of the maleate of the compound represented by formula A according to the present application were taken to perform a stability experiment. Specific operation was as follows: 60 mg of the samples of the crystal form of the sulfate of the compound represented by formula A and the crystal form of the maleate of the compound represented by formula A according to the present application were taken and placed for 30 days respectively under conventional condition (sealed and placed in a dark place at 25° C.), high-temperature condition (sealed and placed in a dark place at 60° C.) and accelerated condition (opened and placed in a dark place at 40° C.-75% relative humidity) to study crystal form stability.

[5] = Crystal form stability of salt forms as suspensions in solvents; conditions: for Crystal form after stirring suspension: room temperature
[6] = Hygroscopicity by DVS; type: physicochemical; conditions: relative humidity 20%-80%; for Moisture uptake: DVS; for Appearance: after DVS
Procedure: Dynamic Vapor Sorption (DVS) data and isothermal sorption analysis data were collected with TA Instruments Q5000 TGA. The detection method used was as follows: 1-10 mg of a sample was placed in a platinum crucible, and weight change with the change of relative humidity from 20% to 80% was detected.

[7] = Storage stability of sodium salt crystal form, 4 months; type: physicochemical; conditions: room temperature, relative humidity 10%-90%
[8] = Solubility of sodium salt in water (water gradually added until clear); type: physicochemical; conditions: thermodynamic from solid; in water at 25° C.; deionized water gradually added, ultrasonication to clear solution
Procedure: The solubility of the sample in water was calculated.

[9] = Thermal stability, decomposition temperature by TGA; type: physicochemical
Procedure: Thermogravimetric Analysis (TGA) data were collected with TA Instruments Q500 TGA. The detection method used was as follows: 5-15 mg of a samples was placed in a platinum crucible, and a segmented high-resolution detection method was adopted in which the temperature of the sample was increased from room temperature to 300° C. at a heating rate of 10° C./min under the protection of 40 mL/min dry N2.

SMILES | Solubility [1] [µg/mL] | Appearance, XRPD pattern and melting point after storage [4] | Crystal form after stirring suspension ([5]; Acetone, 3 days) | Crystal form after stirring suspension ([5]; Ethanol, 3 days) | Crystal form after stirring suspension ([5]; Isopropanol, 3 days) | Crystal form after stirring suspension ([5]; Water, 3 days) | Crystal form after stirring suspension ([5]; Water:acetone = 1:1, 3 days) | Crystal form after stirring suspension ([5]; Water:acetone = 1:5, 3 days) | Crystal form after stirring suspension ([5]; Water:acetone = 1:10, 3 days) | Crystal form after stirring suspension ([5]; Water:acetone = 1:100, 3 days) | Crystal form after stirring suspension ([5]; Water:ethanol = 1:1, 3 days) | Crystal form after stirring suspension ([5]; Water:ethanol = 1:5, 3 days) | Crystal form after stirring suspension ([5]; Water:ethanol = 1:10, 3 days) | Crystal form after stirring suspension ([5]; Water:ethanol = 1:100, 3 days) | Stability of crystal form in aqueous systems [5] | Moisture uptake [6] [%] | Appearance [6] | other results
CC(C)Cc1ccc(-c2nc(-c3ccc(CN4CC(C(=O)O)C4)c(F)c3)no2)cc1 [1-{2-fluoro-4-[5-(4-isobutylphenyl)-1,2,4-oxadiazole-3-yl]benzyl}-3-azetidinecarboxylic acid] |  |  |  |  |  |  |  |  |  |  |  |  |  |  |  |  |  | Solubility ([1]; listed as compound represented by formula A): 1.1 µg/mL; Most stable crystal form ([2]; in an organic solvent): crystal form IV; Most stable crystal form ([2]; in water): crystal form I; Final crystal form ([3]; Acetone): Crystal form IV; Final crystal form ([3]; Ethanol): Crystal form IV; Final crystal form ([3]; Isopropanol): Crystal form IV; Final crystal form ([3]; Water:acetone = 1:1): Crystal form I; Final crystal form ([3]; Water:acetone = 1:5): Crystal form I; Final crystal form ([3]; Water:acetone = 1:10): Crystal form I; Final crystal form ([3]; Water:acetone = 1:100): Crystal form I; Final crystal form ([3]; Water:ethanol = 1:1): Crystal form I; Final crystal form ([3]; Water:ethanol = 1:5): Crystal form I; Final crystal form ([3]; Water:ethanol = 1:10): Crystal form I; Final crystal form ([3]; Water:ethanol = 1:100): Crystal form I; Final crystal form ([3]; Water): Crystal form I
CC(C)Cc1ccc(-c2nc(-c3ccc(CN4CC(C(=O)O)C4)c(F)c3)no2)cc1.O=C(O)/C=C\C(=O)O [maleate of 1-{2-fluoro-4-[5-(4-isobutylphenyl)-1,2,4-oxadiazole-3-yl]benzyl}-3-azetidinecarboxylic acid] | 16.1 | unchanged | No change | No change | No change | No change | No change | No change | No change | No change | No change | No change | No change | No change | stable | 0.4 | Powder | solubility at 2 h ([1]; deionized water, 25 °C, water, thermodynamic from solid): 16 µg/mL
CC(C)Cc1ccc(-c2nc(-c3ccc(CN4CC(C(=O)[O-])C4)c(F)c3)no2)cc1.[Na+] [sodium salt of 1-{2-fluoro-4-[5-(4-isobutylphenyl)-1,2,4-oxadiazole-3-yl]benzyl}-3-azetidinecarboxylic acid] |  |  | No change | No change | No change | No change | No change | No change | No change | No change | No change | No change | No change | No change | stable |  |  | Appearance, XRPD pattern and melting point after storage [7]: unchanged; Solubility [8]: 10000 µg/mL; Decomposition temperature [9]: 275 °C
CC(C)Cc1ccc(-c2nc(-c3ccc(CN4CC(C(=O)O)C4)c(F)c3)no2)cc1 [sulfate of 1-{2-fluoro-4-[5-(4-isobutylphenyl)-1,2,4-oxadiazole-3-yl]benzyl}-3-azetidinecarboxylic acid] | 19.2 | unchanged | No change | No change | No change | No change | No change | No change | No change | No change | No change | No change | No change | No change | stable | 0.7 | Powder | Solubility ([1]; listed as sulfate of the compound represented by formula A): 19 µg/mL
